Data: PubChem BioAssay AID330 (DTP/NCI, 2004)
“And” between values parts separate entries of the source, which are not always exact repeats. Equal entries are not always repeated. Toxic doses and inconclusive results are not listed. The calls were made as follows: active = survival T/C of 150% or more; inactive = T/C below 125% in these data.

Test system: P388 leukemia ip, CD2F1 mice, survival T/C
Experiment: NCI In Vivo Anticancer Drug Screen. Data for tumor model P388 Leukemia (intraperitoneal) in CD2F1 (CDF1) mice
Settings: endpoint: median survival time, higher = longer survival
Method in brief: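 Mice carrying the transplanted tumor received test compound or vehicle. Survival was recorded in each group, and the value is the treated-group measurement divided by that of the vehicle-treated control group.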

[1] = dose: 50.0 mg/kg/injection, schedule: Q01DX009 (ip), vehicle: saline with Tween-80
[2] = dose: 100.0 mg/kg/injection, schedule: Q01DX009 (ip), vehicle: saline with Tween-80
[3] = dose: 200.0 mg/kg/injection, schedule: Q01DX009 (ip), vehicle: saline with Tween-80
[4] = dose: 12.5 mg/kg/injection, schedule: Q01DX005 (ip), vehicle: saline with Tween-80
[5] = dose: 60.0 mg/kg/injection, schedule: Q01DX005 (ip), vehicle: saline with Tween-80
[6] = dose: 120.0 mg/kg/injection, schedule: Q01DX005 (ip), vehicle: saline with Tween-80
[7] = dose: 100.0 mg/kg/injection, schedule: Q04DX003 (ip), vehicle: saline with Tween-80
[8] = dose: 200.0 mg/kg/injection, schedule: Q04DX003 (ip), vehicle: saline with Tween-80
[9] = dose: 400.0 mg/kg/injection, schedule: Q04DX003 (ip), vehicle: saline with Tween-80
[10] = dose: 50.0 mg/kg/injection, schedule: Q01DX009 (ip), vehicle: Klucel (hydroxypropylcellulose) (HPC)
[11] = dose: 100.0 mg/kg/injection, schedule: Q01DX009 (ip), vehicle: Klucel (hydroxypropylcellulose) (HPC)
[12] = dose: 200.0 mg/kg/injection, schedule: Q01DX009 (ip), vehicle: Klucel (hydroxypropylcellulose) (HPC)

Measured: T/C

C=C1CC/C=C(\C)C(=O)C(O)C2C1CC2(C)C (stereo unspecified)
inactive: dose: 0.37 mg/kg/injection, schedule: Q01DX009 (ip), vehicle: saline + alcohol 104 % of control | dose: 0.75 mg/kg/injection, schedule: Q01DX009 (ip), vehicle: saline + alcohol 104 % of control | dose: 1.5 mg/kg/injection, schedule: Q01DX009 (ip), vehicle: saline + alcohol 106 % of control | dose: 3.0 mg/kg/injection, schedule: Q01DX009 (ip), vehicle: saline + alcohol 105 % of control | dose: 6.0 mg/kg/injection, schedule: Q01DX009 (ip), vehicle: saline + alcohol 88 % of control

Cc1ccc(S(=O)(=O)NC(=O)O/N=C/c2ccc3c(c2)OCO3)cc1
inactive: [1] 100 % of control | [2] 97 % of control | [3] 100 % of control

C=CCOC(=O)C12CCC(C)(C)CC1C1=CCC3C4(C)CCC(O)C(C)(CO)C4CCC3(C)C1(C)CC2 (stereo unspecified)
inactive: dose: 3.0 mg/kg/injection, schedule: Q01DX005 (ip), vehicle: saline with Tween-80 111 % of control | dose: 6.0 mg/kg/injection, schedule: Q01DX005 (ip), vehicle: saline with Tween-80 114 % of control | dose: 12.0 mg/kg/injection, schedule: Q01DX005 (ip), vehicle: saline with Tween-80 100 % of control | [4] 92 % of control

Cc1c(N(C)C)nc2cc(N(C)C)ccc2c1Cl
inactive: [1] 91 % of control | [2] 92 % of control | [3] 91 % of control

CC1(C)CC2C[C@H]3CC[C@@H]4O[C@]34C2[C@H]1OC(=O)/C=C/c1ccccc1 (stereo partly specified)
inactive: dose: 74.5 mg/kg/injection, schedule: Q01DX001 (ip), vehicle: saline with Tween-80 100 % of control | dose: 149.0 mg/kg/injection, schedule: Q01DX001 (ip), vehicle: saline with Tween-80 99 % of control | dose: 298.0 mg/kg/injection, schedule: Q01DX001 (ip), vehicle: saline with Tween-80 99 % of control

O=c1cc(C(F)(F)F)c2cc3c(cc2o1)NCCC3
inactive: [5] 89 % of control | [6] 86 % of control

CCN(CC)CCSc1c2ccc(Cl)cc2nc2ccc(OC)cc12
inactive: dose: 12.5 mg/kg/injection, schedule: Q01DX005 (ip), vehicle: saline 106 % of control | dose: 25.0 mg/kg/injection, schedule: Q01DX005 (ip), vehicle: saline 106 % of control | dose: 50.0 mg/kg/injection, schedule: Q01DX005 (ip), vehicle: saline 105 % of control and 106 % of control

CC(=O)NCC(=O)c1ccc(Cl)cc1
inactive: [7] 120 % of control | [8] 120 % of control | [9] 105 % of control

N#CC(=O)Nc1ccc(Cl)cc1
inactive: dose: 3.75 mg/kg/injection, schedule: Q01DX005 (ip), vehicle: saline with Tween-80 103 % of control | dose: 7.5 mg/kg/injection, schedule: Q01DX005 (ip), vehicle: saline with Tween-80 111 % of control | dose: 15.0 mg/kg/injection, schedule: Q01DX005 (ip), vehicle: saline with Tween-80 109 % of control

CCn1c(Cl)c(/C=N/NS(=O)(=O)c2ccc(C)cc2)c2cccc(/C=N\NS(=O)(=O)c3ccc(C)cc3)c21
inactive: dose: 50.0 mg/kg/injection, schedule: Q01DX001 (ip), vehicle: Klucel (hydroxypropylcellulose) (HPC) 99 % of control | dose: 100.0 mg/kg/injection, schedule: Q01DX001 (ip), vehicle: Klucel (hydroxypropylcellulose) (HPC) 96 % of control

O=C(C=C(C(F)(F)F)C(F)(F)F)c1cccc([N+](=O)[O-])c1
inactive: dose: 6.25 mg/kg/injection, schedule: Q04DX003 (ip), vehicle: saline with Tween-80 104 % of control | dose: 12.5 mg/kg/injection, schedule: Q04DX003 (ip), vehicle: saline with Tween-80 104 % of control | dose: 25.0 mg/kg/injection, schedule: Q04DX003 (ip), vehicle: saline with Tween-80 100 % of control

C#CC(C)(CC(C)C)OCCN(CC)CC (stereo unspecified)
inactive: dose: 6.25 mg/kg/injection, schedule: Q01DX005 (ip), vehicle: saline with Tween-80 106 % of control | [4] 104 % of control | dose: 25.0 mg/kg/injection, schedule: Q01DX005 (ip), vehicle: saline with Tween-80 104 % of control

COc1ccc(CC(C#N)c2ccc(OC)cc2)cc1 (stereo unspecified)
inactive: [10] 111 % of control and 96 % of control | [11] 100 % of control and 96 % of control | [12] 99 % of control and 93 % of control

Cn1ccc2c3c(ccc21)C(N1CCOCC1)=CS(=O)(=O)O3
inactive: dose: 50.0 mg/kg/injection, schedule: Q01DX005 (ip), vehicle: Klucel (hydroxypropylcellulose) (HPC) 104 % of control | dose: 100.0 mg/kg/injection, schedule: Q01DX005 (ip), vehicle: Klucel (hydroxypropylcellulose) (HPC) 98 % of control | dose: 200.0 mg/kg/injection, schedule: Q01DX005 (ip), vehicle: Klucel (hydroxypropylcellulose) (HPC) 100 % of control

NC(=O)NCCSC1(SCCNC(N)=O)CCCCC1
inactive: [10] 107 % of control | [11] 103 % of control | [12] 100 % of control | dose: 400.0 mg/kg/injection, schedule: Q01DX009 (ip), vehicle: Klucel (hydroxypropylcellulose) (HPC) 99 % of control

COc1ccc(CCNC(=O)c2c3nc4c(C(=O)NCCc5ccc(OC)c(OC)c5)ccc(C)c4oc-3c(C)c(=O)c2N)cc1OC
inactive: dose: 100.0 mg/kg/injection, schedule: Q04DX003 (ip), vehicle: saline + alcohol 104 % of control | dose: 200.0 mg/kg/injection, schedule: Q04DX003 (ip), vehicle: saline + alcohol 102 % of control | dose: 400.0 mg/kg/injection, schedule: Q04DX003 (ip), vehicle: saline + alcohol 105 % of control

CC1=C(C)C(=O)OC(C(C)(O)C2(O)CCC3(O)C4CC(O)C56OC5C=CC(=O)C6(C)C4CCC32C)C1 (stereo unspecified)
inactive: dose: 0.75 mg/kg/injection, schedule: Q01DX005 (ip), vehicle: Klucel (hydroxypropylcellulose) (HPC) 100 % of control | dose: 1.5 mg/kg/injection, schedule: Q01DX005 (ip), vehicle: Klucel (hydroxypropylcellulose) (HPC) 102 % of control | dose: 3.0 mg/kg/injection, schedule: Q01DX005 (ip), vehicle: Klucel (hydroxypropylcellulose) (HPC) 108 % of control | dose: 6.0 mg/kg/injection, schedule: Q01DX005 (ip), vehicle: Klucel (hydroxypropylcellulose) (HPC) 111 % of control

O=C(NCCCCC(NC(=O)c1ccccc1)C(=O)O)OCc1ccccc1 (stereo unspecified)
inactive: dose: 50.0 mg/kg/injection, schedule: Q01DX005 (ip), vehicle: saline with Tween-80 96 % of control | dose: 100.0 mg/kg/injection, schedule: Q01DX005 (ip), vehicle: saline with Tween-80 100 % of control | dose: 200.0 mg/kg/injection, schedule: Q01DX005 (ip), vehicle: saline with Tween-80 92 % of control

CC(=O)NO
inactive: dose: 50.0 mg/kg/injection, schedule: Q01DX009 (ip), vehicle: saline 104 % of control | dose: 100.0 mg/kg/injection, schedule: Q01DX009 (ip), vehicle: saline 96 % of control | dose: 200.0 mg/kg/injection, schedule: Q01DX009 (ip), vehicle: saline 103 % of control

CC(C)(C)CC(C)(C)c1ccc(OCc2ccccc2Cl)cc1
inactive: [1] 98 % of control | [2] 95 % of control | [3] 100 % of control

Nc1cc(N)n(N)c(=S)n1
inactive: dose: 25.0 mg/kg/injection, schedule: Q01DX009 (ip), vehicle: Klucel (hydroxypropylcellulose) (HPC) 103 % of control | [10] 100 % of control | dose: 50.0 mg/kg/injection, schedule: Q04DX003 (ip), vehicle: saline with Tween-80 104 % of control | [11] 110 % of control | [7] 103 % of control | [12] 108 % of control | [8] 99 % of control | [9] 100 % of control

Cc1nn(C(=O)c2cccnc2)c(-c2ccccc2)c1N=Nc1ccc(S(N)(=O)=O)cc1
inactive: dose: 100.0 mg/kg/injection, schedule: Q04DX002 (ip), vehicle: saline with Tween-80 90 % of control | dose: 200.0 mg/kg/injection, schedule: Q04DX002 (ip), vehicle: saline with Tween-80 90 % of control | dose: 400.0 mg/kg/injection, schedule: Q04DX002 (ip), vehicle: saline with Tween-80 95 % of control

O=C(O)Cc1noc2ccccc12
inactive: dose: 25.0 mg/kg/injection, schedule: Q04DX003 (ip), vehicle: Klucel (hydroxypropylcellulose) (HPC) 92 % of control | dose: 50.0 mg/kg/injection, schedule: Q04DX003 (ip), vehicle: Klucel (hydroxypropylcellulose) (HPC) 91 % of control | dose: 100.0 mg/kg/injection, schedule: Q04DX003 (ip), vehicle: Klucel (hydroxypropylcellulose) (HPC) 91 % of control | dose: 200.0 mg/kg/injection, schedule: Q04DX003 (ip), vehicle: Klucel (hydroxypropylcellulose) (HPC) 90 % of control

Cc1nc2ccc(N(C)C)cc2c2c1Cc1c(C)nc3ccc(N(C)C)cc3c1O2
inactive: [5] 88 % of control | [6] 88 % of control | dose: 240.0 mg/kg/injection, schedule: Q01DX005 (ip), vehicle: saline with Tween-80 94 % of control
